From US10137105B2, “Combination treatment protocol” (Bionomics Limited, priority 2015, dated 2018)

Assays:
CLL cells on L4.5 stroma = experiment: Apoptosis of CLL cells co-incubated 24 h on CD154+ L4.5 stromal cells; format: cell-based, human
Description: (§1) CLL cells were obtained from consented patients at the Norris Cotton Cancer Center. Cells were purified by centrifugation in Ficoll-Paque PLUS from 10 mL of blond. Lymphocytes were plated in RPMI 1640 plus 10% serum at 1×10^6 cells/mL after three washes in PBS+2 mmol/L EDTA. Cells were either incubated immediately with reagents or after 24 h incubation with confluent layers of CD154+ stromal cells (L 4.5) at a ratio of 5:1.
(§2) Cells were incubated for […] with 2 μg/mL Hoechst 33342 at 37° C. and visualized with a fluorescent microscope. At least 200 cells were scored for each sample. The percentage of cells with condensed chromatin was recorded.
The experiments above have shown that CLL cells are usually very sensitive to EX2. However, these cells were isolated from peripheral blood, and the real problem to curing CLL is to be able to kill cells that reside in the lymph node or bone marrow niche. To mimic this niche, we have used L4.5 cells that express CD154. Co-incubation of CLL cells on this stroma for 24 h elicits marked resistance to many drugs including the BCL-2 inhibitor ABT-199 (FIG. 7). […] However, when ABT-199 and EX2 were combined, marked apoptosis was again observed. For example, 100 nM ABT-199 alone induced about 10% apoptosis, whereas when combined with 1 μM EX2, >60% apoptosis was observed within 6 h. The combination of 1 μM EX2 and 1 μM ABT-199 induced about 80% apoptosis. […]

[1] = tested on: normal peripheral lymphocytes; experiment: Toxicity to normal peripheral lymphocytes (PARP cleavage, chromatin condensation); format: cell-based, human; conditions: for PARP cleavage / apoptosis in normal peripheral lymphocytes: 0-1 μM EX2, 1-10 nM ABT-199 or 100 nM dinaciclib, each alone
Description: as §2
(§3) Cells were lysed in urea sample buffer [4 mol/L urea, 10% β-mercaptoethanol, 6% w/v SDS, 125 mmol/L Tris (pH 6.8), 0.01% w/v bromphenol blue, and protease/phosphatase inhibitor cocktail] and boiled for 5 min. Proteins were subsequently separated by SDS-PAGE (10 or 15% w/v) and transferred to polyvinylidene difluoride membrane (Millipore). Membranes were blocked with 5% w/v nonfat milk in TBS and 0.05% w/v Tween 20, and were probed with the appropriate primary antibody overnight. Subsequently, membranes were washed in TBS and 0.05% w/v Tween 20, and then incubated with secondary antibody conjugated to horseradish peroxidase. Proteins were visualized by enhanced chemiluminescence (Amersham). Actin was used as a loading control in Western blots.
To test the potential toxicity of EX2, normal peripheral lymphocytes were isolated from a healthy volunteer and incubated with EX2 alone or in combination with ABT-199.

hERG channel = hERG channel (Homo sapiens, UniProt Q12809); experiment: hERG channel inhibition, in vitro testing; format: biochemical
Sequence of hERG channel (Q12809 whole entry): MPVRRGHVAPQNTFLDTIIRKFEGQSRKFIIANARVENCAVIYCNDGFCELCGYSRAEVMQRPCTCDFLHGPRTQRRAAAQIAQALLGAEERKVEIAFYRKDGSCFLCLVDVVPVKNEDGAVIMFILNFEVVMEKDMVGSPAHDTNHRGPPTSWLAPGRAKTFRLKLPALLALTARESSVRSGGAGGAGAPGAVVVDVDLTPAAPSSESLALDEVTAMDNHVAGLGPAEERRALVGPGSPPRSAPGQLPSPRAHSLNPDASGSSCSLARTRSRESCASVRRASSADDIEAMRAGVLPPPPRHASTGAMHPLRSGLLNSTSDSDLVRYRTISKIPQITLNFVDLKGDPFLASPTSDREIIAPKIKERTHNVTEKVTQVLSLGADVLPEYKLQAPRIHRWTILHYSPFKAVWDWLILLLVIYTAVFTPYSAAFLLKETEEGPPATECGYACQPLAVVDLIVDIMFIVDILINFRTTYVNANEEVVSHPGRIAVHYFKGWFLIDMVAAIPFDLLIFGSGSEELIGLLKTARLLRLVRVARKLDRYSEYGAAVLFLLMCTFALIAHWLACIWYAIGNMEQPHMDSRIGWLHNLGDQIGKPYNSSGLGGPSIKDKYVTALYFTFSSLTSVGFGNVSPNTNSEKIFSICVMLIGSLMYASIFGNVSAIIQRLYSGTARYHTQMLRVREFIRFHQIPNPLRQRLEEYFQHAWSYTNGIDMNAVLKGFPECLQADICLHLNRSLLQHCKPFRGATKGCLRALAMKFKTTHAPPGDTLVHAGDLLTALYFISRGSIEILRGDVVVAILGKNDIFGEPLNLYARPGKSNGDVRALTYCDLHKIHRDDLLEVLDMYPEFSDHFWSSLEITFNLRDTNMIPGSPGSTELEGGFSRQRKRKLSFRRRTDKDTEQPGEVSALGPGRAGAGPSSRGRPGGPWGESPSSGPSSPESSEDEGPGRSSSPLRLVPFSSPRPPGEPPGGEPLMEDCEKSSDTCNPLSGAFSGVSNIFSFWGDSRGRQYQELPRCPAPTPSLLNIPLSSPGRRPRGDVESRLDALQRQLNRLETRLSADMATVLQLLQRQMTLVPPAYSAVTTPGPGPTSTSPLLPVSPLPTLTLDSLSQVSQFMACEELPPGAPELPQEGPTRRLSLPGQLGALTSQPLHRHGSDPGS
Excerpt: (§4) Signs of cardiomyopathy were decreased in severity and incidence by 14 days after the 2-cycles of treatment, indicating recovery or reversibility of the effects. The implications of these findings for humans are not clear as these cardiovascular effects were not observed in dog toxicity studies. […] Thus an effect on the hERG channel is expected to be slight, if any, at efficacious doses of Example 2.

CLL cells [2] = experiment: Chromatin condensation (Hoechst 33342) apoptosis scoring in freshly isolated CLL cells; format: cell-based, human
Description: as §1, §2

Jeko-1 cells = experiment: Kinetics of apoptosis in Jeko-1 cells (Western blots); format: cell-based; conditions: 20 nM EX2 (FIG. 6)
Description: FIG. 6: Kinetics of compounds of Formula (I) induced apoptosis in Jeko-1 cells. Western blots of Jeko-1 cells incubated with 20 nM compounds of Formula (I). “C”=a control cell line incubated with 2 μM vinblastine as a positive control for protein expression.
as §3

[3] = Dog toxicity studies, cardiovascular effects; format: in vivo; conditions: dogs
Excerpt: as §4

[4] = tested on: malignant pleural mesothelioma; experiment: Phase II study of Example 2 in patients with malignant pleural mesothelioma; format: in vivo, human
Description: (§5) The recommended Phase 2 dose (RP2D) of Example 2 is evaluated in subjects with advanced solid tumors. Dosing is at a level of 2.1 mg/m^2. The dose of 16 mg/m^2 is deemed to be an MTD. In this study, adverse events are seen across all dose groups. The two most common categories of AE's are gastrointestinal disorders (nausea, vomiting, constipation) and general disorders (predominantly fatigue). Disorders related to bone marrow suppression are rare. Anemia is reported in one patient at a dose level of 8.4 mg/m^2 and in two patients at a dose level of 18.9 mg/m^2. […] Similarly, in a phase 11 study of Example 2 in patients with malignant pleural mesothelioma grade 1-2 gastrointestinal and general disorders are the predominant AE's: in 87% and 50% of patients correspondingly. Grade 3 fatigue is observed in 8% of patients. Finally, grade 1-2 anemia is reported in 33% of study participants.

[5] = Cardiovascular safety pharmacology study in telemetered dogs; format: in vivo, dog; conditions: doses up to 0.8 mg/kg (highest dose assessed)
Excerpt: as §4

CLL cells [6] = experiment: Immunoblot analysis (PARP cleavage, pJNK, Noxa) in CLL cells; format: cell-based, human
Description: as §1, §3

[7] = 2-cycle rat toxicity study; format: in vivo; conditions: rats, 2 cycles; decreased in severity and incidence by 14 days after treatment
Excerpt: as §4

advanced solid tumors = experiment: Phase I study of Example 2 in subjects with advanced solid tumors; format: in vivo, human
Description: as §5
Thus, this study employs 8 mg/m^2 iv on days 1 and 8 (cycle 1) or 8 and 15 (cycles 2-6) of a 21-day cycle as a starting dose of Example 2. This dose corresponds to a dose one tier below that sufficient to induce disruption of microtubules, yet also is lower than the currently established MTD in a Phase I study of Example 2 in patients with solid tumors. […] The study follows a standard 3+3 Phase I design (between 3 and 6 patients are enrolled at each dose tier). The dose of the drug is escalated to 16 mg/m^2, toxicities permitting. If toxicities emerge at dose level 1, the dose of Example 2 is de-escalated to 4 mg/m^2. […] Preliminary assessment of response and pharmacodynamic endpoints of treatment with Example 2 is assessed at several dose levels allowing for more careful selection of RP2D in CLL.

microtubules in PBMCs = experiment: Disruption of microtubules in PBMCs of dosed subjects; format: in vivo, human; conditions: doses of 12.6 and 16 mg/m^2
[8] = healthy volunteer, 6 h, 0-1 μM EX2

CC1(C)CCC(CN2CCN(c3ccc(C(=O)NS(=O)(=O)c4ccc(NCC5CCOCC5)c([N+](=O)[O-])c4)c(Oc4cnc5[nH]ccc5c4)c3)CC2)=C(c2ccc(Cl)cc2)C1 [ABT-199, reference compound]
apoptosis (CLL cells on L4.5 stroma; 100 nM ABT-199 alone, CLL cells on stroma, 6 h): about 10% | chromatin condensation in normal peripheral lymphocytes ([1]; ABT-199 1-10 nM with or without EX2, 6 h): no chromatin condensation was observed | PARP cleavage / apoptosis in normal peripheral lymphocytes ([1]; healthy volunteer, 6 h): slight PARP cleavage

CCc1cnn2c(NCc3ccc[n+]([O-])c3)cc(N3CCCC[C@H]3CCO)nc12 [Dinaciclib, reference compound]
PARP cleavage / apoptosis in normal peripheral lymphocytes ([1]; healthy volunteer, 6 h): some apoptosis

COc1cc(C(=O)c2c(C)oc3c(O)c(OC)ccc23)cc(OC)c1OC [Example 1, 2-Methyl-7-hydroxy-3-(3,4,5-trimethoxybenzoyl)-6-methoxybenzofuran]
IC50 (hERG channel): > 6.71 µM

COc1cc(C(=O)c2c(C)oc3c(OP(=O)([O-])[O-])c(OC)ccc23)cc(OC)c1OC.[Na+].[Na+] [Example 2, Disodium 6-methoxy-2-methyl-3-(3,4,5-trimethoxybenzoyl)benzofuran-7-yl phosphate]
potency as inducer of apoptosis compared with vinblastine and combretastatin A4 (CLL cells [2]; chromatin condensation and PARP cleavage, 6 h, 3-6 patients): more potent inducer of apoptosis | concentration at which apoptosis (chromatin condensation) was observed (CLL cells [2]; freshly isolated CLL cells, media with 0-1 μM EX2, 6 h (FIG. 1)): 10 to 100 nM | time by which apoptosis was complete (Jeko-1 cells): up to 24 h | effects on the cardiovascular system [3]: no effects on the cardiovascular system | IC50 (hERG channel): > 979 µM | Grade 3 fatigue, patients [4]: 8% | grade 1-2 anemia, study participants [4]: 33% | grade 1-2 gastrointestinal disorders, patients [4]: 87% | grade 1-2 general disorders, patients [4]: 50% | effects on cardiovascular or respiratory function [5]: no effects on cardiovascular or respiratory function | PARP cleavage in presence of JNK inhibitor VIII (CLL cells [6]; 0-1 μM EX2, 6 h, with JNK inhibitor VIII): completely prevented | PARP cleavage by 24 h (CLL cells [6]; 20 nM, patient 114, incubated up to 24 h (FIG. 5)): almost total cleavage of PARP | JNK activation and PARP cleavage five hours after removing EX2 (CLL cells [6]; 1 h pulse treatment, then 5 h without EX2, versus continuous incubation): still observed albeit slightly less | concentration at which apoptosis, pJNK and Noxa expression began to appear (CLL cells [6]; 6 h, patient 49 (FIG. 2A)): 5 nM | time to activation of JNK (CLL cells [6]; CLL cells incubated with EX2): less than one hour | pJNK and NOXA in protein lysates (CLL cells [6]; same concentrations of EX2 (10-100 nM), 6 h): increased | apoptosis of co-cultured CLL cells, EX2 alone (CLL cells on L4.5 stroma; 1 μM EX2, 24 h on L4.5 stroma then 6 h drug): no apoptosis observed | Noxa induction in normal peripheral lymphocytes [1, 8]: no Noxa was induced | pJNK in normal peripheral lymphocytes [1, 8]: activated | PARP cleavage / apoptosis in normal peripheral lymphocytes ([1]; healthy volunteer, 6 h): no significant PARP cleavage or chromatin condensation | cardiac finding [7]: dose-dependent, reversible cardiomyopathy | anemia, patients reported (advanced solid tumors; dose level 8.4 mg/m^2): one patient | anemia, patients reported (advanced solid tumors; dose level 18.9 mg/m^2): two patients | grade 4 events (advanced solid tumors; dose level 18.9 mg/m^2, same subject): Two grade 4 events (myocardial infarction and peripheral neuropathy) | MTD (advanced solid tumors; subjects with advanced solid tumors): 16 mg/m^2 | effect on microtubules in PBMCs (microtubules in PBMCs): briefly disrupt microtubules
